This test concerns root-knot nematodes (Meloidogyne sp), some Pratylenchus sp. The test can be described thus: Water screen, plant parasitic nematodes. Type of test: in vivo. As for the experimental part:
100 microliters containing nematodes were pipetted into 2.5 cm Petri dishes. The nematodes used were principally root-knot nematodes (Meloidogyne sp) but some initial observations were also made on some Pratylenchus sp. and free-living species (non-plant parasites). 900 microliters of Loquat extract, or 500 microliters of Loquat extract plus 400 microliters of water, were added to the nematodes to give concentrations of 90 or 50% of the original Loquat extract. Total added volume was therefore 1 ml.
Controls were nematodes from the same source placed in tap water.
Following application of the Loquat or amygdalin solution, observations were made after 10 minutes, the next day, and after 5 days.

For the compound `N#C[C@H](O[C@@H]1O[C@H](CO[C@@H]2O[C@H](CO)[C@@H](O)[C@H](O)[C@H]2O)[C@@H](O)[C@H](O)[C@H]1O)c1ccccc1` [amygdalin], the Activity of nematodes entry is on record as “still active” (10 minutes, both concentrations (70 mg or 400 mg in 50 ml water)); “still active” (5 days later, both amygdalin treatments); “active” (next day, both amygdalin treatments). Also, the “Activity of amygdalin itself (conclusion)” value (in vivo) was “not active per se”.
